Measurements from patent publication US20220259593A1, “CONTROL OF MAMMALIAN GENE DOSAGE USING CRISPR” (The Regents of the University of California, priority 2019, published 2022).

Columns and labels:
K562 CRISPRi cells [1] = assay: Perturb-seq pooled growth measurement (sgRNA counts, growth phenotype γ, relative activity); format: cell-based, human; settings: for gamma_day5 / gamma_day10: pooled growth phenotype γ of the Perturb-seq sgRNA; for gamma_day5: day 5, K562 CRISPRi cells; for gamma_day10: day 10, K562 CRISPRi cells; for relative_activity_day5: γ relative to perfectly matched sgRNA (_00) of the same gene, day 5; for Perturb-seq pooled growth sgRNA counts, d5 / Perturb-seq pooled growth sgRNA counts, d10 / Perturb-seq pooled growth sgRNA counts, T0: sequencing read counts; for Perturb-seq pooled growth sgRNA counts, d5: 5 days of growth (day seven after transduction); for Perturb-seq pooled growth sgRNA counts, d10: 10 days of growth (day twelve after transduction); for Perturb-seq pooled growth sgRNA counts, T0: T0 = day two after transduction
Procedure, shortened: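 CRISPRi K562 cells from the Perturb-seq transduced pool; 500,000-cell samples taken days two, seven and twelve post-transduction. sgRNA amplicons from genomic DNA sequenced; growth phenotypes from normalized sgRNA abundances at days seven and twelve versus day two. Relative activity assigned from day seven (five days' growth).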

K562 CRISPRi cells [2] = assay: as above; format: cell-based, human; settings: γ relative to perfectly matched sgRNA (_00) of the same gene, day 10

Substance	gamma_day5 (K562 CRISPRi cells [1])	gamma_day10 (K562 CRISPRi cells [1])	relative_activity_day5 (K562 CRISPRi cells [1])	relative_activity_day10 (K562 CRISPRi cells [2])	Perturb-seq pooled growth sgRNA counts, d5 (K562 CRISPRi cells [1])	Perturb-seq pooled growth sgRNA counts, d10 (K562 CRISPRi cells [1])	Perturb-seq pooled growth sgRNA counts, T0 (K562 CRISPRi cells [1])
ALDOA_ + _30077139.23-P1P2_00 (guide GGTCACCAGGACCCCTTCTG; listed as DNA, chemistry not fully specified)	−0.4127	−0.3665	1	1			
ALDOA_ + _30077139.23-P1P2_06 (guide GGTCACCAGGATCCCTTCTG; listed as DNA, chemistry not fully specified)	−0.3967	−0.3485	0.9611	0.951			
ALDOA_ + _30077139.23-P1P2_07 (guide GGTCACCAGGCCCCCTTCTG; listed as DNA, chemistry not fully specified)	−0.3609	−0.3351	0.8744	0.9143			
ALDOA_ + _30077139.23-P1P2_13 (guide GGTCACCAGGACCCCTTTTG; listed as DNA, chemistry not fully specified)	0.01706	−0.0002203	−0.04134	0.0006011			
ALDOA_ + _30077139.23-P1P2_14 (guide GGTCACCAGGACCGCTTCTG; listed as DNA, chemistry not fully specified)	−0.1752	−0.1566	0.4246	0.4274			
ATP5E_ −_57607036.23-P1P2_00 (guide GGTGTCCAGGGGCACTCTGT; listed as DNA, chemistry not fully specified)	−0.1769	−0.2247	1	1			
ATP5E_ −_57607036.23-P1P2_01 (guide GGTGTCCTGGGGCACTCTGT; listed as DNA, chemistry not fully specified)	−0.2097	−0.2284	1.185	1.016			
ATP5E_ −_57607036.23-P1P2_04 (guide GGTGTCCAGGAGCACTCTGT; listed as DNA, chemistry not fully specified)	−0.09793	−0.1204	0.5536	0.5358			
ATP5E_ −_57607036.23-P1P2_14 (guide GGTGTCCAGGGGCACTGTGT; listed as DNA, chemistry not fully specified)	−0.01233	−0.03506	0.0697	0.156			
ATP5E_ −_57607036.23-P1P2_16 (guide GGTGTCCAGGGGCGCTCTGT; listed as DNA, chemistry not fully specified)	−0.1616	−0.1656	0.9135	0.7368			
BCR_ + _23523092.23-P1P2_00 (guide GCGCGCGGGGCCCGTCTCAG; listed as DNA, chemistry not fully specified)	−0.8426	−0.5068	1	1			
BCR_ + _23523092.23-P1P2_04 (guide GCGCGCGGAGCCCGTCTCAG; listed as DNA, chemistry not fully specified)	−0.7401	−0.418	0.8783	0.8249			
BCR_ + _23523092.23-P1P2_05 (guide GCGCGCGGCGCCCGTCTCAG; listed as DNA, chemistry not fully specified)	−0.3535	−0.2247	0.4196	0.4434			
BCR_ + _23523092.23-P1P2_07 (guide GCGCGCGGGGCTCGTCTCAG; listed as DNA, chemistry not fully specified)	−0.8707	−0.4869	1.033	0.9607			
BCR_ + _23523092.23-P1P2_13 (guide GCGCGCGGGGCCCATCTCAG; listed as DNA, chemistry not fully specified)	−0.2183	−0.1615	0.2591	0.3187			
BCR_ + _23523092.23-P1P2_15 (guide GCGCGCGGGGCCCGTCGCAG; listed as DNA, chemistry not fully specified)	−0.2314	−0.1773	0.2747	0.3498			
CAD_ + _27440280.23-P1P2_00 (guide GGCTGGAGAGAAGCCGGGCG; listed as DNA, chemistry not fully specified)	−0.7714	−0.684	1	1			
CAD_ + _27440280.23-P1P2_03 (guide GGCTGGTGAGAAGCCGGGCG; listed as DNA, chemistry not fully specified)	−0.7687	−0.6267	0.9965	0.9162			
TUBB_+_30688126.23-P1_06: sgRNA targeting TUBB, GCGGCAGGACGGTTCTGAGA, SEQ ID NO: 107 (listed as DNA, chemistry not fully specified)					1983	1158	6235
TUBB_+_30688126.23-P1_10: sgRNA targeting TUBB, GCGGCAGGAAGGTTCAGAGA, SEQ ID NO: 109 (listed as DNA, chemistry not fully specified)					9877	12737	7085
non-targeting_00001: non-targeting negative control sgRNA, GTGCACCCGGCTAGGACCGG, SEQ ID NO: 161 (listed as DNA, chemistry not fully specified) [reference compound]					18946	31944	10415
non-targeting_00028: non-targeting negative control sgRNA, GGTGGCCTTTGCAATTGGCG, SEQ ID NO: 162 (listed as DNA, chemistry not fully specified) [reference compound]					20289	35652	8871
non-targeting_00054: non-targeting negative control sgRNA, GGGCCTGGACGAGCCTAAAA, SEQ ID NO: 163 (listed as DNA, chemistry not fully specified) [reference compound]					29818	49855	12360
non-targeting_00089: non-targeting negative control sgRNA, GGGGTGAGGGTCCAATTCGG, SEQ ID NO: 164 (listed as DNA, chemistry not fully specified) [reference compound]					27748	44919	10841
non-targeting_00217: non-targeting negative control sgRNA, GTGAACTCAAAAATCCCGAC, SEQ ID NO: 165 (listed as DNA, chemistry not fully specified) [reference compound]					25185	42962	10286
non-targeting_00283: non-targeting negative control sgRNA, GGGCCGACGGATAGGAGGGA, SEQ ID NO: 166 (listed as DNA, chemistry not fully specified) [reference compound]					18547	27936	8188
non-targeting_00406: non-targeting negative control sgRNA, GGCGCCGGACTGGACCTCGA, SEQ ID NO: 167 (listed as DNA, chemistry not fully specified) [reference compound]					24099	39839	9974
non-targeting_00527: non-targeting negative control sgRNA, GTGGGAGCAGATCAAGACTC, SEQ ID NO: 168 (listed as DNA, chemistry not fully specified) [reference compound]					16865	27634	6840
non-targeting_00802: non-targeting negative control sgRNA, GCACGACGCTCCGGCACGCG, SEQ ID NO: 169 (listed as DNA, chemistry not fully specified) [reference compound]					16759	27842	7096
non-targeting_01040: non-targeting negative control sgRNA, GTACGGCATGGCGCACTGCG, SEQ ID NO: 170 (listed as DNA, chemistry not fully specified) [reference compound]					0	0	0
